According to patent US20190262409A1, “NOVEL LACTOBACILLUS SAKEI AND COMPOSITION COMPRISING THE SAME” (CJ Cheiljedang Corporation, priority 2016, published 2019):

Legend:
Type in all cases: in vivo
[1] = system: obesity induced mice with high fat diet; assay: Autopsy and blood biochemistry examination in high fat diet mice; details: serum, day 49, 16 h fasted, compared to HFD or GC group (FIG. 9)
From the text: (§1) From the time of arrival, all animals underwent a 6-week induction period, including a one-week acclimation period. The mice were divided into normal diet (negative control) and high fat diet (positive control and experiment group) and each fed, while given feed and water ad libitum for 6 weeks from the day of division (day 0). The CJLS03 according to the present disclosure was grouped according to concentrations (low: 10^8 CFU, medium: 10^9 CFU, high: 10^10 CFU). To measure accurate efficacy, a commercially available FDA-approved anti-obesity drug Orlistat (Product name: Zenical), and a health function food Garcinia cambogia were added as experiment groups in addition to the normal diet control group and high fat diet group, and compared with the anti-obesity function of the lactic acid bacterial.
For administration, the lactic acid bacteria were homogeneously suspended in PBS and administered in a 10 mL/kg of administration volume twice daily at determined times (10:00 A.M. to 11:00 A.M., 5:00 P.M. to 6:00 P.M.) for 7 weeks, while the control groups were orally administered with the same amount of solvent vehicle (PBS) twice daily for 7 weeks. Experimental substances were newly prepared and administered into the A.M. and P.M.-administered strain. All strains were stored under refrigeration so as to retain the active condition thereof, and the PBS which was refrigerated was used for washing strain samples and preparing solutions. The experimental animal of each group was fasted for 16 hours and sacrificed on the termination day of experiment (day 49) to be used for blood biochemistry tests and histological evaluation analysis.
On the day of termination of the experiment according to Example 4-1 (day 49), the experimental animals were sacrificed after stopping their diets for 16 hours and autopsied. All of the experimental animals were subjected to collection of about 500 μL to 700 μL of blood using a heparin-free capillary tube of plexus venosus under an ether inhalation anesthesia. The collected blood was put in an SST tube and coagulated for 30 minutes to 1 hour at room temperature. The blood was then centrifuged at 4° C. and 4000 rpm for 10 minutes to separate the serum followed by storing at −80° C. until the analysis. The amounts of glucose (GLU), triglyceride (TG), total cholesterol (TC), low-density lipoprotein cholesterol (LDL), high-density lipoprotein cholesterol (HDL), glutamate oxaloacetate transaminase (GOT; AST), glutamate pyruvate transaminase (GPT; ALT), CREA (creatinine), and lactate dehydrogenase (LDH) in the separated serum were measured using a blood biochemistry (Accute TBA-40FR, Toshiba Medical System Co., Japan).

[2] = system: obesity induced mice with high fat diet; assay: Measurement of organ fat weight in high fat diet mice; details: compared with HFD group (FIGS. 10 and 11)
From the text: (§2) From the time of arrival, all animals underwent a 6-week induction period, including a one-week acclimation period. The mice were divided into normal diet (negative control) and high fat diet (positive control and experiment group) and each fed, while given feed and water ad libitum for 6 weeks from the day of division (day 0). The CJLS03 according to the present disclosure was grouped according to concentrations (low: 10^8 CFU, medium: 10^9 CFU, high: 10^10 CFU). […]
(§3) For administration, the lactic acid bacteria were homogeneously suspended in PBS and administered in a 10 mL/kg of administration volume twice daily at determined times (10:00 A.M. to 11:00 A.M., 5:00 P.M. to 6:00 P.M.) for 7 weeks, while the control groups were orally administered with the same amount of solvent vehicle (PBS) twice daily for 7 weeks. […]
After blood was collected, the visceral examination was carried out to confirm the presence of abnormalities in the internal organs, and the adipose tissues (epididymal fat, subcutaneous fat, mesenteric fat) were extracted. […] The weight of each adipose tissue was measured with an electronic balance. Additionally, the relative tissue weight per 100 g of body weight was calculated based on the body weight fasted before autopsy (calculation formula: relative organ weight (%)=organ weight (g)/fasting body weight before autopsy (g)×100). […]

[3] = system: obesity induced mice with high fat diet; assay: Histological evaluation of liver tissue (H & E) in high fat diet mice; details: H & E stained liver sections; CJLS03 high concentration group (FIG. 12)
From the text: as §1
as §3, with “weeks. Experimental substances were newly prepared and administered into the A.M. and P.M.-administered strain.” for “weeks.”
Liver tissues of the ND, HFD, OLS, GC, and high CJLS03 concentration groups were histologically evaluated. […]

[4] = system: obesity induced mice with high fat diet; assay: Measurement of size of adipocytes in high fat diet mice; details: compared to HFD and GC groups; CJLS03 high concentration group (FIG. 13)
From the text: as §2, §3
Measuring the size of adipocytes is well known as an effective method capable of proving the anti-obesity efficacy. […] The adipocyte photos were analyzed using the Scion image program (derived from NIH Image) by calculating an average value of two adipocyte sizes. […]

SMILES: CCCCCCCCCCC[C@@H](C[C@@H]1OC(=O)[C@H]1CCCCCC)OC(=O)[C@H](CC(C)C)NC=O [OLS, Orlistat]
- concentration of blood HDL [1]: significantly reduce
- concentration of blood LDL [1]: significantly reduce
- concentration of blood TC (total cholesterol) [1]: significantly reduce
- concentration of blood glucose [1]: significantly reduce
- fasting weight ([2]; body weight after 16 h fasting before autopsy): lower than those of the HFD group
- adipose tissue weights ([2]; epididymal, subcutaneous, mesenteric fat): lower than those of the HFD group
- lipid particles in liver tissue [3]: rarely found
- sizes of the adipocytes [4]: significantly reduced
